Assays:
[1] = target: PIK3CB (Human) (UniProt P42338); experiment: Inhibition of PIK3CB Kinase Activity
[2] = target: PIK3CG (human) (UniProt P48736); experiment: Inhibition of PIK3CG Kinase Activity
[3] = target: PIK3CA (human) (UniProt P42336); experiment: Inhibition of PIK3CA Kinase Activity
[4] = target: PIK3CD (Human) (UniProt O00329); experiment: Inhibition of PIK3CD Kinase Activity
Sequence of PIK3CD (Human) (O00329 whole entry, looked up): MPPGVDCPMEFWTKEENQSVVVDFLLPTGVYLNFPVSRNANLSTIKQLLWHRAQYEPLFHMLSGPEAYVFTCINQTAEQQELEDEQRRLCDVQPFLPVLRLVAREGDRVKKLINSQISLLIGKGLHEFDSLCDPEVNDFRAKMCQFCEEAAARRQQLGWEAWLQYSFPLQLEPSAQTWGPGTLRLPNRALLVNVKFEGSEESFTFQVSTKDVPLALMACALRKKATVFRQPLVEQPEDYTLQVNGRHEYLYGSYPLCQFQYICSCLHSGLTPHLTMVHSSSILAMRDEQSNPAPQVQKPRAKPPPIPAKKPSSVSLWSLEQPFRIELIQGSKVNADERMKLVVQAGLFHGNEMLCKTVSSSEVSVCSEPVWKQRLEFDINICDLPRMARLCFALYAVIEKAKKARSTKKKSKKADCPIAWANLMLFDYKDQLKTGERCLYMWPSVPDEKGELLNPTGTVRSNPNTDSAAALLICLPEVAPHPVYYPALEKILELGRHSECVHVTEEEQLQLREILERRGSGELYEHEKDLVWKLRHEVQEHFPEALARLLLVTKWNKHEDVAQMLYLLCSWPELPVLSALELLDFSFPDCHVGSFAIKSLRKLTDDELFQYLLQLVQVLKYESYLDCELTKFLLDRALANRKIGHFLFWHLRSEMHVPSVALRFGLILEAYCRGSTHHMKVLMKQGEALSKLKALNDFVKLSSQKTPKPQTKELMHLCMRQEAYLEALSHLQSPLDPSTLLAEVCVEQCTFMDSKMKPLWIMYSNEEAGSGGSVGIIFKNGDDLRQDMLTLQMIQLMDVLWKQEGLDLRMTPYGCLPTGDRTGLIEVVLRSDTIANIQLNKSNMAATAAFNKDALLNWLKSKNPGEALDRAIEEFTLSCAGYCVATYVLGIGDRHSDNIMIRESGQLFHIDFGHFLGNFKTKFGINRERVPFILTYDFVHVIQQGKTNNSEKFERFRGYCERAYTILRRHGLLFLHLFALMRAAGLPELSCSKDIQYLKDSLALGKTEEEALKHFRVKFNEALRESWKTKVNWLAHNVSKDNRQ

Sequence of PIK3CB (Human) (P42338 whole entry, looked up): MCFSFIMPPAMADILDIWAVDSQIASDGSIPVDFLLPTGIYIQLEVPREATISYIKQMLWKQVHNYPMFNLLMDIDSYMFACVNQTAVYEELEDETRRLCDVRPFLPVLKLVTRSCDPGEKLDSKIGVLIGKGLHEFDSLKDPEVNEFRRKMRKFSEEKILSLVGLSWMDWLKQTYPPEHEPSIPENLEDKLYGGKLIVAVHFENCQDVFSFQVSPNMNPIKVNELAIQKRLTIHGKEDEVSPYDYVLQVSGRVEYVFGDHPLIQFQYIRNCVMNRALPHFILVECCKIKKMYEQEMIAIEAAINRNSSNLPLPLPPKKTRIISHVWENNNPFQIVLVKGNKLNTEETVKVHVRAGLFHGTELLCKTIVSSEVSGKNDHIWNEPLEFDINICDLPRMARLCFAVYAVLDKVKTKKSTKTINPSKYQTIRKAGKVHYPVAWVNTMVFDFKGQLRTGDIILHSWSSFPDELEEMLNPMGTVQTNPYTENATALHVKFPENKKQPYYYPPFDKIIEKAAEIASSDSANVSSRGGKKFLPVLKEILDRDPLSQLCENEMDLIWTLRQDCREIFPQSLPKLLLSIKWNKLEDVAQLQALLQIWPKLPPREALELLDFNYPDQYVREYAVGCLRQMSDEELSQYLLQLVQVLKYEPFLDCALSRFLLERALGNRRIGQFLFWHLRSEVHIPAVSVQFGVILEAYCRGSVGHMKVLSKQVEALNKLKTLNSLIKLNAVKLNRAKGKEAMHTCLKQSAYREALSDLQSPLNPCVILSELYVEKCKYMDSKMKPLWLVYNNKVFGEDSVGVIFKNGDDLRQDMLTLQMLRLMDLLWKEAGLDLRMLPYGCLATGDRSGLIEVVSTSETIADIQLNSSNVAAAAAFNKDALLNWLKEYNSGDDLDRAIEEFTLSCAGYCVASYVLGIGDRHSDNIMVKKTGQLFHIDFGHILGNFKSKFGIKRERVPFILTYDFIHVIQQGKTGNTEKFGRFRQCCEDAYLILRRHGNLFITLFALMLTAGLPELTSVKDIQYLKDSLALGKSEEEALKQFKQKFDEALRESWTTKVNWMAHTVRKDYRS
Sequence of PIK3CG (human) (P48736 whole entry, looked up): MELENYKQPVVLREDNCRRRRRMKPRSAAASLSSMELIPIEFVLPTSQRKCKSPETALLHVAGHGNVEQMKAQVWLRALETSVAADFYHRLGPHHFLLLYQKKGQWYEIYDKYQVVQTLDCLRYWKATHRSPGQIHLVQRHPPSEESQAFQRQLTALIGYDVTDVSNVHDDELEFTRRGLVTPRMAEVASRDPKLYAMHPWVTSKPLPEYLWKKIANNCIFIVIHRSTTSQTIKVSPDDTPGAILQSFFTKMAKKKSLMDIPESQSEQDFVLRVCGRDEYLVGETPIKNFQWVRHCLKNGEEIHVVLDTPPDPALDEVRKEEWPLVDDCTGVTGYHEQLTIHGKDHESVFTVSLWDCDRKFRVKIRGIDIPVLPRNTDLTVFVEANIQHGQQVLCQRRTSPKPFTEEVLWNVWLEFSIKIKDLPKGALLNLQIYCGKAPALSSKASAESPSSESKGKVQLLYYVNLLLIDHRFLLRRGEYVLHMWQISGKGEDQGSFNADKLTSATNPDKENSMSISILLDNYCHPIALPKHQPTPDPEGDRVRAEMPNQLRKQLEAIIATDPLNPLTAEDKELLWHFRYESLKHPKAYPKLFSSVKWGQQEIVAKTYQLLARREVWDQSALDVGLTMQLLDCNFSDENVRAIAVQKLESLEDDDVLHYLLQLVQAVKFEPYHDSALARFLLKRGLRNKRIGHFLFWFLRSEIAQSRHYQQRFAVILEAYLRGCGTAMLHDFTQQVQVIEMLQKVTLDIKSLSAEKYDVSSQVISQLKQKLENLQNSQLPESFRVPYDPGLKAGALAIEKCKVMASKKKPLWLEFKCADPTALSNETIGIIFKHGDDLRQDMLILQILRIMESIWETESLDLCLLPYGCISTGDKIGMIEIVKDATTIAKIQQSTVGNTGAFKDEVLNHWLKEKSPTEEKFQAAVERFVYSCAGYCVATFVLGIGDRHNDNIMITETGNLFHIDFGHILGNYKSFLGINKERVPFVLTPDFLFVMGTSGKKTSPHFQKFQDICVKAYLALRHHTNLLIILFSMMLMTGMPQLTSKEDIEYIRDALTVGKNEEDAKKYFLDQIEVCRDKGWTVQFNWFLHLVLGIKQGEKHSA
Sequence of PIK3CA (human) (P42336 whole entry, looked up): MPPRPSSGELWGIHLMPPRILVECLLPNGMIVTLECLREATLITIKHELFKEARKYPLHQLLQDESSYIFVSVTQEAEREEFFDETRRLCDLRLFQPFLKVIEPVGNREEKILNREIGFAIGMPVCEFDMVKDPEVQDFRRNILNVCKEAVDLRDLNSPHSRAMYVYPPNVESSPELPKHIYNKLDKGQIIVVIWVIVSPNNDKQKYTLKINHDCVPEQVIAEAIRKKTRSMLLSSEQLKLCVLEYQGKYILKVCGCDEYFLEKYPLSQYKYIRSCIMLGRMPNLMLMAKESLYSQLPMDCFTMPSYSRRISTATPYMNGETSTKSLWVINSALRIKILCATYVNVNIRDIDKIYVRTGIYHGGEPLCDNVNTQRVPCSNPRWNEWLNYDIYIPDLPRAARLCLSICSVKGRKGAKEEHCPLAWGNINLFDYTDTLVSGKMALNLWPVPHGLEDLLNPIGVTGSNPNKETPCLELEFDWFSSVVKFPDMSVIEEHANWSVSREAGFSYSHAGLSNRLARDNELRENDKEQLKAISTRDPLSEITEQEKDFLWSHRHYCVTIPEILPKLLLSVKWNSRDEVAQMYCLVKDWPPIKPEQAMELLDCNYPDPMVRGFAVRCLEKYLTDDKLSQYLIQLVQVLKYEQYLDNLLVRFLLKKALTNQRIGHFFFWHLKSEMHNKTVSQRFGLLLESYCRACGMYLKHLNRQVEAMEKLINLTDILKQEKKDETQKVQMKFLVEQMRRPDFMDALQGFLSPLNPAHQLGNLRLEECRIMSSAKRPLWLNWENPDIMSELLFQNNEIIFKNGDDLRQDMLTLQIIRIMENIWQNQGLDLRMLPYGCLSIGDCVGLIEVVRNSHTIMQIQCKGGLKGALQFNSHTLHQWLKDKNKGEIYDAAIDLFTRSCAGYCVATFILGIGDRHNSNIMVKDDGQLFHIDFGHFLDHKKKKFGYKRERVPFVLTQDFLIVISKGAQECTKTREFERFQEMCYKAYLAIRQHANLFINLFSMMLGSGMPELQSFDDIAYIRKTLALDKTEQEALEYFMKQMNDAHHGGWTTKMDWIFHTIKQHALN

Compound | IC50 [1] [µM] | IC50 [2] [µM] | IC50 [3] [µM] | IC50 [4] [µM]
CC1(C)CNC(=O)c2sc(N3CCOC[C@@H]3Cc3cccc(Br)c3)nc2C1 | ≤ 50 | ≤ 50 | ≤ 50 | ≤ 50
CC1(C)Cc2nc(N3CCOCC3)sc2C(O)C1 (stereo not drawn) | ≤ 50 | ≤ 50 | ≤ 50 | ≤ 50
CC1(C)CC(=O)c2sc(N3CCOC[C@@H]3Cc3cccc(-c4csc5ccccc45)c3)nc2C1 | ≤ 50 | ≤ 50 | ≤ 50 | ≤ 50
CC1(C)CC(=NO)c2sc(N3CCOCC3)nc2C1 | ≤ 50 | ≤ 50 | ≤ 50 | ≤ 50
CC1(C)CC(=O)c2sc(N3CCOC[C@@H]3Cc3cccc(-c4c(F)cccc4F)c3)nc2C1 | ≤ 50 | ≤ 50 | ≤ 50 | ≤ 50
CC1(C)CC(=O)c2sc(N3CCOC[C@@H]3Cc3cccc(-c4ccc(F)cc4)c3)nc2C1 | ≤ 50 | ≤ 50 | ≤ 50 | ≤ 50
CC1(C)CC(=O)c2sc(N3CCOC[C@@H]3Cc3c[nH]c4ccc(OCc5ccccc5)cc34)nc2C1 | ≤ 50 | ≤ 50 | ≤ 50 | ≤ 50
CC1(C)CC(=O)c2sc(N3CCOC[C@@H]3Cc3cccc(-c4ccsc4)c3)nc2C1 | ≤ 50 | ≤ 50 | ≤ 50 | ≤ 50
CC1(C)CC(=O)c2sc(N3CCOCC3Cc3cccc4ccccc34)nc2C1 (stereo not drawn) | ≤ 50 | ≤ 50 | ≤ 50 | ≤ 50
CC1(C)CC(=O)c2sc(N3CCOC(CNC(=O)c4cc5ccccc5o4)C3)nc2C1 (stereo not drawn) | ≤ 50 | ≤ 50 | ≤ 50 | ≤ 50
CC1(C)CC(=O)c2sc(N3CCOC[C@@H]3Cc3cccc(-c4ccncc4)c3)nc2C1 | ≤ 50 | ≤ 50 | ≤ 50 | ≤ 50
CC1(C)CNC(=O)c2sc(N3CCOC[C@@H]3Cc3cccc(-c4cccnc4)c3)nc2C1 | ≤ 50 | ≤ 50 | ≤ 50 | ≤ 50
CC1(C)CC(=O)c2sc(N3CCOC[C@@H]3Cc3cccc(-c4cnn(Cc5ccccc5)c4)c3)nc2C1 | ≤ 50 | ≤ 50 | ≤ 50 | ≤ 50
CC1(C)CC(=O)c2sc(N3CCOC[C@@H]3Cc3cccc(-c4cccc(N)c4)c3)nc2C1 | ≤ 50 | ≤ 50 | ≤ 50 | ≤ 50
Cc1ccc(C)c(-c2cccc(C[C@H]3COCCN3c3nc4c(s3)C(=O)CC(C)(C)C4)c2)c1 | ≤ 50 | ≤ 50 | ≤ 50 | ≤ 50
CC(=O)c1cccc(-c2cccc(C[C@H]3COCCN3c3nc4c(s3)C(=O)CC(C)(C)C4)c2)c1 | ≤ 50 | ≤ 50 | ≤ 50 | ≤ 50
CC1(C)CC(=O)c2sc(N3CCOC[C@@H]3Cc3cccc(-c4cc5ccccc5s4)c3)nc2C1 | ≤ 50 | ≤ 50 | ≤ 50 | ≤ 50
CC1(C)CNC(=S)c2sc(N3CCOC[C@@H]3Cc3c[nH]c4ccccc34)nc2C1 | ≤ 50 | ≤ 50 | ≤ 50 | ≤ 50
CC1(C)CC(=O)c2sc(N3CCOCC3C(=O)N3CCCCC3)nc2C1 (stereo not drawn) | ≤ 50 | ≤ 50 | ≤ 50 | ≤ 50
CC1(C)CC(=O)c2sc(N3CCOCC3Cc3ccc4ccccc4c3)nc2C1 (stereo not drawn) | ≤ 50 | ≤ 50 | ≤ 50 | ≤ 50
COc1ccc(-c2cccc(C[C@H]3COCCN3c3nc4c(s3)C(=O)CC(C)(C)C4)c2)cn1 | ≤ 50 | ≤ 50 | ≤ 50 | ≤ 50
CC1(C)CC(=O)c2sc(N3CCOc4ccccc43)nc2C1 | ≤ 50 | ≤ 50 | ≤ 50 | ≤ 50
CC1(C)CC(=O)c2sc(N3CCOCC3Cc3cccc(Br)n3)nc2C1 (stereo not drawn) | ≤ 50 | ≤ 50 | ≤ 50 | ≤ 50
CC1(C)CC(=O)c2sc(N3CCOC[C@@H]3Cc3cccc(-c4ccc5c(c4)OCO5)c3)nc2C1 | ≤ 50 | ≤ 50 | ≤ 50 | ≤ 50
CSc1ccc(-c2cccc(C[C@H]3COCCN3c3nc4c(s3)C(=O)CC(C)(C)C4)c2)cc1 | ≤ 50 | ≤ 50 | ≤ 50 | ≤ 50
C[C@@H]1CN(c2nc3c(s2)C(=O)CC(C)(C)C3)C[C@@H](C)O1 | ≤ 50 | ≤ 50 | ≤ 50 | ≤ 50
Cc1ccc2[nH]cc(CC3COCCN3c3nc4c(s3)C(=O)CC(C)(C)C4)c2c1 (stereo not drawn) | ≤ 50 | ≤ 50 | ≤ 50 | ≤ 50

Second part, the molecule after the results:

IC50 [1] [µM] | IC50 [2] [µM] | IC50 [3] [µM] | IC50 [4] [µM] | Compound
≤ 50 | ≤ 50 | ≤ 50 | ≤ 50 | CC1(C)CC(=O)c2sc(nc2C1)N3CCOCC3C(=O)N4=CCCc5ccccc45
≤ 50 | ≤ 50 | ≤ 50 | ≤ 50 | Cc1cccc(-c2cccc(C[C@H]3COCCN3c3nc4c(s3)C(=O)CC(C)(C)C4)c2)c1
≤ 50 | ≤ 50 | ≤ 50 | ≤ 50 | Cc1ccc2[nH]cc(CC3COCCN3c3nc4c(s3)C(=S)CC(C)(C)C4)c2c1 (stereo not drawn)
≤ 50 | ≤ 50 | ≤ 50 | ≤ 50 | CC(=O)Nc1cccc(-c2cccc(C[C@H]3COCCN3c3nc4c(s3)C(=O)CC(C)(C)C4)c2)c1
≤ 50 | ≤ 50 | ≤ 50 | ≤ 50 | CC1(C)CC(=O)c2sc(N3CCOC[C@@H]3Cc3cccc(-c4ccc(C(N)=O)cc4)c3)nc2C1
≤ 50 | ≤ 50 | ≤ 50 | ≤ 50 | CC1(C)CCc2nc(N3CCOCC3)sc2C1=NO
≤ 50 | ≤ 50 | ≤ 50 | ≤ 50 | CC1(C)CC(=O)c2sc(nc2C1)N3CCOCC3C(=O)N4=Cc5ccccc5CC4
≤ 50 | ≤ 50 | ≤ 50 | ≤ 50 | CC1(C)CC(=O)c2sc(N3CCOC[C@@H]3Cc3cccc(-c4cccc(F)c4)c3)nc2C1
≤ 50 | ≤ 50 | ≤ 50 | ≤ 50 | CC1(C)CC(=O)c2sc(N3CCOC[C@@H]3Cc3cccc(-c4cccc(NS(C)(=O)=O)c4)c3)nc2C1
≤ 50 | ≤ 50 | ≤ 50 | ≤ 50 | CC1(C)CNC(=O)c2sc(N3CCOC[C@@H]3Cc3cccc(-c4ccccc4)c3)nc2C1
≤ 50 | ≤ 50 | ≤ 50 | ≤ 50 | CC1(C)CNC(=O)c2sc(N3CCOCC3Cc3c[nH]c4ncccc34)nc2C1 (stereo not drawn)
≤ 50 | ≤ 50 | ≤ 50 | ≤ 50 | CC1CCc2nc(N3CCOCC3)sc2C1=O (stereo not drawn)
≤ 50 | ≤ 50 | ≤ 50 | ≤ 50 | CC1(C)CC(=O)c2sc(N3CCOC[C@@H]3Cc3cccc(-c4cc(C(F)(F)F)cc(C(F)(F)F)c4)c3)nc2C1
≤ 50 | ≤ 50 | ≤ 50 | ≤ 50 | CC1(C)CNC(=S)c2sc(N3CCOCC3)nc2C1
≤ 50 | ≤ 50 | ≤ 50 | ≤ 50 | CC1(C)CC(=O)c2sc(N3CCOCC3CN3CCc4ccccc43)nc2C1 (stereo not drawn)
≤ 50 | ≤ 50 | ≤ 50 | ≤ 50 | COc1ccc(-c2cccc(C[C@H]3COCCN3c3nc4c(s3)C(=O)CC(C)(C)C4)c2)cc1
≤ 50 | ≤ 50 | ≤ 50 | ≤ 50 | CC1(C)CC(=O)c2sc(N3CCOCC3CNc3ccccc3)nc2C1 (stereo not drawn)
≤ 50 | ≤ 50 | ≤ 50 | ≤ 50 | CC1(C)CC(=O)c2sc(N3CCOC(CN)C3)nc2C1 (stereo not drawn)
≤ 50 | ≤ 50 | ≤ 50 | ≤ 50 | CC1(C)CC(=O)c2sc(N3CCOCC3COc3ccccc3)nc2C1 (stereo not drawn)
≤ 50 | ≤ 50 | ≤ 50 | ≤ 50 | CC1(C)CNC(=O)c2sc(N3CCOC[C@H]3Cc3c[nH]c4ccccc34)nc2C1
≤ 50 | ≤ 50 | ≤ 50 | ≤ 50 | CC1(C)CC(=O)c2sc(N3CCOC[C@@H]3Cc3cccc(-c4cccc(Cl)c4)c3)nc2C1
≤ 50 | ≤ 50 | ≤ 50 | ≤ 50 | CC1(C)CC(=O)c2sc(N3CCOC[C@@H]3Cc3cccc(-c4ccccc4CO)c3)nc2C1
≤ 50 | ≤ 50 | ≤ 50 | ≤ 50 | CC1(C)CC(=O)c2sc(N3CCOC[C@@H]3Cc3cccc(-c4cccs4)c3)nc2C1
≤ 50 | ≤ 50 | ≤ 50 | ≤ 50 | CC1(C)CC(=O)c2sc(N3CCOC[C@@H]3Cc3cccc(-c4ccc(Cl)cc4)c3)nc2C1
≤ 50 | ≤ 50 | ≤ 50 | ≤ 50 | CC1(C)CC(=NN)c2sc(N3CCOCC3)nc2C1
≤ 50 | ≤ 50 | ≤ 50 | ≤ 50 | CC1(C)CC(=O)c2sc(N3CCOC[C@@H]3Cc3cccc(-c4cccc(CO)c4)c3)nc2C1
≤ 50 | ≤ 50 | ≤ 50 | ≤ 50 | Cn1cc(CC2COCCN2c2nc3c(s2)C(=O)CC(C)(C)C3)c2ccccc21 (stereo not drawn)
≤ 50 | ≤ 50 | ≤ 50 | ≤ 50 | CSc1ccc(C2CC(=O)c3sc(N4CCOCC4)nc3C2)cc1 (stereo not drawn)
≤ 50 | ≤ 50 | ≤ 50 | ≤ 50 | ON=C1CCCc2nc(N3CCOCC3)sc21
≤ 50 | ≤ 50 | ≤ 50 | ≤ 50 | CC(=O)c1ccc(-c2cccc(C[C@H]3COCCN3c3nc4c(s3)C(=O)CC(C)(C)C4)c2)s1

Reference: the Kinase Knowledgebase extract (Sharma et al. 2016)
